Details: Liquid, Vibrating tube method

FC(C(F)(F)F)C(F)(F)F [1,1,1,2,3,3,3-heptafluoropropane]
Details	mass density [kg/m3]
313.14 K, 30999 kPa	1493.6
313.14 K, 31036 kPa	1493.7
313.14 K, 31073 kPa	1494
313.14 K, 31110 kPa	1494.1
313.14 K, 31162 kPa	1494.3
313.14 K, 31193 kPa	1494.3
313.14 K, 31225 kPa	1494.5
313.14 K, 31252 kPa	1494.5
313.14 K, 31284 kPa	1494.6
313.14 K, 31324 kPa	1494.9
313.14 K, 31355 kPa	1494.8
313.14 K, 31397 kPa	1495.1
313.14 K, 31585 kPa	1495.6
313.14 K, 31617 kPa	1495.8
313.14 K, 31653 kPa	1495.9
313.14 K, 31696 kPa	1495.9
313.14 K, 31739 kPa	1496.2
313.14 K, 32132 kPa	1497.6
313.14 K, 32203 kPa	1497.7
313.14 K, 32369 kPa	1498.3
313.14 K, 32414 kPa	1498.5
313.14 K, 32447 kPa	1498.5
313.14 K, 32485 kPa	1498.7
313.14 K, 32523 kPa	1498.9
313.14 K, 32566 kPa	1499
313.14 K, 32604 kPa	1499
313.14 K, 32652 kPa	1499.4
313.14 K, 32736 kPa	1499.5
313.14 K, 32789 kPa	1499.7
313.14 K, 32821 kPa	1500
313.14 K, 32853 kPa	1500
313.14 K, 32900 kPa	1500.1
313.14 K, 32937 kPa	1500.2
313.14 K, 32975 kPa	1500.4
313.14 K, 33013 kPa	1500.5
313.14 K, 33094 kPa	1500.7
313.15 K, 714 kPa	1321.1
313.15 K, 733 kPa	1321.4
313.15 K, 755 kPa	1321.6
313.15 K, 777 kPa	1321.7
313.15 K, 797 kPa	1322.1
313.15 K, 819 kPa	1322.3
313.15 K, 838 kPa	1322.5
313.15 K, 871 kPa	1322.8
313.15 K, 891 kPa	1323.2
313.15 K, 917 kPa	1323.3
313.15 K, 934 kPa	1323.7
313.15 K, 963 kPa	1323.9
313.15 K, 985 kPa	1324
313.15 K, 1014 kPa	1324.4
313.15 K, 1036 kPa	1324.7
313.15 K, 1063 kPa	1325
313.15 K, 1087 kPa	1325.1
313.15 K, 1117 kPa	1325.7
313.15 K, 1146 kPa	1325.9
313.15 K, 1167 kPa	1326.1
313.15 K, 1191 kPa	1326.5
313.15 K, 1222 kPa	1326.6
313.15 K, 1249 kPa	1327
313.15 K, 1273 kPa	1327.4
313.15 K, 1296 kPa	1327.6
313.15 K, 1317 kPa	1327.7
313.15 K, 1338 kPa	1328
313.15 K, 1369 kPa	1328.3
313.15 K, 1396 kPa	1328.6
313.15 K, 1472 kPa	1329.4
313.15 K, 1496 kPa	1329.6
313.15 K, 1525 kPa	1330
313.15 K, 1550 kPa	1330.3
313.15 K, 1575 kPa	1330.4
313.15 K, 1597 kPa	1330.7
313.15 K, 1618 kPa	1331
313.15 K, 1653 kPa	1331.4
313.15 K, 1677 kPa	1331.6
313.15 K, 1698 kPa	1331.7
313.15 K, 1726 kPa	1332.2
313.15 K, 1744 kPa	1332.4
313.15 K, 1772 kPa	1332.6
313.15 K, 1793 kPa	1332.8
313.15 K, 1811 kPa	1333
313.15 K, 1836 kPa	1333.3
313.15 K, 1864 kPa	1333.4
313.15 K, 1893 kPa	1333.9
313.15 K, 1921 kPa	1334.1
313.15 K, 1946 kPa	1334.4
313.15 K, 1972 kPa	1334.7
313.15 K, 1998 kPa	1334.8
313.15 K, 2028 kPa	1335.1
313.15 K, 2049 kPa	1335.2
313.15 K, 2077 kPa	1335.6
313.15 K, 2102 kPa	1335.9
313.15 K, 2131 kPa	1336.1
313.15 K, 2153 kPa	1336.4
313.15 K, 2183 kPa	1336.7
313.15 K, 2208 kPa	1337
313.15 K, 2230 kPa	1337.2
313.15 K, 2692 kPa	1341.6
313.15 K, 2720 kPa	1342
313.15 K, 2751 kPa	1342.2
313.15 K, 2775 kPa	1342.4
313.15 K, 2803 kPa	1342.8
313.15 K, 2825 kPa	1342.9
313.15 K, 2851 kPa	1343.2
313.15 K, 2872 kPa	1343.4
313.15 K, 2905 kPa	1343.7
313.15 K, 2928 kPa	1343.9
313.15 K, 2959 kPa	1344.2
313.15 K, 2986 kPa	1344.4
313.15 K, 3012 kPa	1344.6
313.15 K, 3042 kPa	1345
313.15 K, 3072 kPa	1345.3
313.15 K, 3095 kPa	1345.4
313.15 K, 3298 kPa	1347.3
313.15 K, 3325 kPa	1347.5
313.15 K, 3356 kPa	1347.8
313.15 K, 3379 kPa	1348
313.15 K, 3402 kPa	1348.2
313.15 K, 3437 kPa	1348.6
313.15 K, 3464 kPa	1348.7
313.15 K, 3491 kPa	1349.1
313.15 K, 3518 kPa	1349.3
313.15 K, 3548 kPa	1349.5
313.15 K, 3572 kPa	1349.7
313.15 K, 3603 kPa	1350.1
313.15 K, 3625 kPa	1350.2
313.15 K, 3656 kPa	1350.5
313.15 K, 3679 kPa	1350.7
313.15 K, 3702 kPa	1350.9
313.15 K, 3737 kPa	1351.2
313.15 K, 3761 kPa	1351.4
313.15 K, 3794 kPa	1351.7
313.15 K, 3822 kPa	1352
313.15 K, 3858 kPa	1352.3
313.15 K, 3898 kPa	1352.7
313.15 K, 3926 kPa	1352.9
313.15 K, 3954 kPa	1353.2
313.15 K, 3982 kPa	1353.4
313.15 K, 4018 kPa	1353.5
313.15 K, 4043 kPa	1353.9
313.15 K, 4079 kPa	1354.3
313.15 K, 4110 kPa	1354.6
313.15 K, 4134 kPa	1354.8
313.15 K, 4167 kPa	1355
313.15 K, 4208 kPa	1355.4
313.15 K, 4360 kPa	1356.6
313.15 K, 4382 kPa	1356.8
313.15 K, 4410 kPa	1357
313.15 K, 4435 kPa	1357.3
313.15 K, 4463 kPa	1357.5
313.15 K, 4732 kPa	1359.7
313.15 K, 4757 kPa	1360
313.15 K, 4793 kPa	1360.1
313.15 K, 4811 kPa	1360.4
313.15 K, 4847 kPa	1360.6
313.15 K, 4872 kPa	1360.9
313.15 K, 4904 kPa	1361.1
313.15 K, 4929 kPa	1361.5
313.15 K, 4958 kPa	1361.6
313.15 K, 4976 kPa	1361.7
313.15 K, 5023 kPa	1362.3
313.15 K, 5048 kPa	1362.3
313.15 K, 5074 kPa	1362.5
313.15 K, 5096 kPa	1362.7
313.15 K, 5125 kPa	1363.1
313.15 K, 5148 kPa	1363.1
313.15 K, 5167 kPa	1363.4
313.15 K, 5200 kPa	1363.6
313.15 K, 5222 kPa	1363.9
313.15 K, 5259 kPa	1364
313.15 K, 5281 kPa	1364.2
313.15 K, 5308 kPa	1364.4
313.15 K, 5330 kPa	1364.6
313.15 K, 5357 kPa	1364.8
313.15 K, 5383 kPa	1365.1
313.15 K, 5409 kPa	1365.3
313.15 K, 5434 kPa	1365.4
313.15 K, 5457 kPa	1365.7
313.15 K, 5485 kPa	1365.9
313.15 K, 5508 kPa	1366.1
313.15 K, 5534 kPa	1366.3
313.15 K, 5560 kPa	1366.5
313.15 K, 5593 kPa	1366.7
313.15 K, 5616 kPa	1366.9
313.15 K, 5646 kPa	1367.1
313.15 K, 5672 kPa	1367.3
313.15 K, 5694 kPa	1367.6
313.15 K, 5717 kPa	1367.8
313.15 K, 5739 kPa	1367.9
313.15 K, 5766 kPa	1368
313.15 K, 5801 kPa	1368.3
313.15 K, 5828 kPa	1368.5
313.15 K, 5847 kPa	1368.7
313.15 K, 5870 kPa	1368.9
313.15 K, 5901 kPa	1369.2
313.15 K, 5932 kPa	1369.4
313.15 K, 5959 kPa	1369.7
313.15 K, 5987 kPa	1369.8
313.15 K, 6022 kPa	1370
313.15 K, 6049 kPa	1370.4
313.15 K, 6073 kPa	1370.5
313.15 K, 6096 kPa	1370.6
313.15 K, 6128 kPa	1370.8
313.15 K, 6163 kPa	1371.1
313.15 K, 6406 kPa	1372.9
313.15 K, 6434 kPa	1373
